# Where “and” joins values, the source holds several entries; their conditions need not be identical. Identical values can stand only once. Where no end group is shown, it is not given here.
# Experiments:
# Bcl-B = target: T1, Bcl-B (Homo sapiens, UniProt Q9HD36); details: read-out: IC50 displacing BH3 peptides; cited from earlier work
# T1 sequence (Q9HD36 1-204): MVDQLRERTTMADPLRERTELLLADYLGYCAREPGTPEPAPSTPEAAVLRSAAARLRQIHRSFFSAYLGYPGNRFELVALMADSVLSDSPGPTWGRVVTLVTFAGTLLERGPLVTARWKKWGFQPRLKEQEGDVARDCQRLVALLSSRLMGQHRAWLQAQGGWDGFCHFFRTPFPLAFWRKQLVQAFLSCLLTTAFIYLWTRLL
# Bcl-XL = Bcl-XL (Homo sapiens, UniProt Q07817); details: read-out: IC50 displacing BH3 peptides; cited from earlier work
# Bcl-XL, sequence (Q07817 whole entry, species assumed): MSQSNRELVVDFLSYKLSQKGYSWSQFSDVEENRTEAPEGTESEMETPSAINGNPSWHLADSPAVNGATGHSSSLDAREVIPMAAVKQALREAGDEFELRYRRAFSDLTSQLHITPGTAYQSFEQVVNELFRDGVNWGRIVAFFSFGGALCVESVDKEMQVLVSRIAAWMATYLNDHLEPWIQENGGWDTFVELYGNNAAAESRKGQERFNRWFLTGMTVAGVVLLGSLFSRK
# Bfl-1 = target: T2, Bfl-1 (Homo sapiens, UniProt Q16548); details: read-out: IC50 displacing BH3 peptides; cited from earlier work
# T2 sequence (Q16548 1-175): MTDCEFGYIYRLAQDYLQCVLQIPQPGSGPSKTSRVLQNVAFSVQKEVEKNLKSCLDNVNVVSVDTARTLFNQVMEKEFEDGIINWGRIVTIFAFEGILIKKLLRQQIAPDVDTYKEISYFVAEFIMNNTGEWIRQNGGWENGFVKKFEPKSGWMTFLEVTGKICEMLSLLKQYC
# Jurkat cells = assay: Cytoplasmic Ca2+ elevation by digital imaging in Jurkat cells; type: cell-based
# Procedure: These compounds, along with 320 additional compounds chosen by virtual screening, were screened for hit confirmation. Also, a secondary assay for compound effect on apoptosis was performed in KMS-12-BM cells. […] Thus, a total of 39 compounds were chosen for triplicate confirmation screening. The findings are schematically summarized by means of the heat map in FIG. 5. An ID number, assigned by the chemist(s) who synthesized the compounds, is located to the left. This ID is for identification purposes only and does provide other information about the compound. Columns 1 and 2 represent caspase activity, measured after 24 hr of treatment at UCDDC, normalized to the highest caspase activity observed. Activity levels range from low, represented by the color purple, to high, represented by the color red. Considerable variation among different compounds and between the myeloma lines is observed evident. […] In addition, the same assay was used to test the sensitivity of primary human CLL cells to each compound, as summarized in lane 5. The effect of each compound on intracellular Ca^2+ concentration was measured by digital imaging and results are shown as percentage of cells responding with a significant (more than twofold above baseline) elevation of cytoplasmic Ca^2+ concentration. […] An example of Ca2^+ elevation in response to one of the compounds is illustrated in FIG. 6. […]
# multiple myeloma lines = assay: Cell death induction in multiple myeloma lines (MTS assay); type: cell-based, human
# Procedure: (§1) Of the compounds tested, 148 were identified as hits at 6.5 μM in the primary single-point screen with activity>30% relative to apoptosis induced by 10 μM BIRD-2 in NCI-H929 cells. These compounds, along with 320 additional compounds chosen by virtual screening, were screened for hit confirmation. Also, a secondary assay for compound effect on apoptosis was performed in KMS-12-BM cells. […] Thus, a total of 39 compounds were chosen for triplicate confirmation screening. The findings are schematically summarized by means of the heat map in FIG. 5. An ID number, assigned by the chemist(s) who synthesized the compounds, is located to the left. This ID is for identification purposes only and does provide other information about the compound. Columns 1 and 2 represent caspase activity, measured after 24 hr of treatment at UCDDC, normalized to the highest caspase activity observed. Activity levels range from low, represented by the color purple, to high, represented by the color red. Considerable variation among different compounds and between the myeloma lines is observed evident. Columns 3 and 4 in the heat map (FIG. 5) summarize results of cell death assays testing cell death induction in the same myeloma lines in the Distelhorst laboratory using the MTS assay. In addition, the same assay was used to test the sensitivity of primary human CLL cells to each compound, as summarized in lane 5. The effect of each compound on intracellular Ca^2+ concentration was measured by digital imaging and results are shown as percentage of cells responding with a significant (more than twofold above baseline) elevation of cytoplasmic Ca^2+ concentration. The choice of the Jurkat line for these Ca^2+ measurements was based on our extensive evidence that BIRD-2 binds to the BH4 domain of Bcl-2 endogenously present in this line and that disruption of Bcl-2-IP3R interaction by BIRD-2 elevates cytoplasmic Ca^2+ in this line. An example of Ca2^+ elevation in response to one of the compounds is illustrated in FIG. 6.
# BH4 domain of Bcl-2 = target: T3, BH4 domain of Bcl-2 (Homo sapiens, UniProt P10415); assay: Surface plasmon resonance (Biacore) binding to the BH4 domain of Bcl-2; details: SPR; for Kd: dose response / full binding curve
# T3 construct: borders or tags not given
# T3 sequence (P10415 6-30 limits assumed): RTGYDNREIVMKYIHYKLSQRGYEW
# From the text: The next step in compound validation was to perform surface plasmon resonance (Biacore) to test for binding to the BH4 domain of Bcl-2. […] To date, we have positive evidence of compound binding to the BH4 domain in 4 compounds tested by SPR (FIG. 8). Testing of the remaining compounds from the 14 lead compounds is in progress.
# primary human CLL cells [1] = assay: Cell death induction in primary human CLL cells (MTS assay); type: cell-based
# Procedure: as §1
# [2] = tested on: small cell lung cancer (SCLC) cells; assay: Cytotoxicity in small cell lung cancer (SCLC) lines; type: cell-based
# primary human CLL cells [3] = assay: Ca2+ elevation in primary CLL cells; type: cell-based
# [4] = tested on: KMS-12-BM human myeloma cells; assay: Combination with ABT-263, cell viability by CellTiter-Glo assay; type: cell-based; details: fixed concentration ratio, at several compound concentrations, CI<1 synergistic
# From the text: Since Bcl-2 works by two distinct mechanisms to inhibit apoptosis, we investigated the possibility that 854697 and ABT-263, which selectively target each of these mechanisms, might synergistically kill cancer cells. […] Combination indices (CI) were computed at each concentration to determine whether the increased cytotoxicity is due to an additive (CI=1) or synergistic (CI<1) effect. At several compound concentrations, the CI was <1, indicating synergistic cell death induction when these agents that act by different mechanisms are combined. These findings indicate additional value in developing 854697 as a novel therapeutic agent for Bcl-2-positive malignancies.
# [5] = tested on: normal human peripheral blood lymphocytes; assay: Toxicity toward normal cells; type: cell-based
# [6] = tested on: H2171 Small cell lung cancer (SCLC) cells; assay: BIRD-2/ABT-263 combination cytotoxicity in SCLC cells; type: cell-based; details: 24 hr, FIG. 4
# Procedure: FIG. 4 is a graph illustrating BIRD-2/ABT-263 synergism. H2171 Small cell lung cancer (SCLC) cells treated from 24 hr with 5 μM BIB1 and 39 nM ABT-263 alone or together.
# [7] = tested on: human myeloma cell lines (HMCLs); assay: Apoptosis induction in human myeloma cell lines (HMCLs); type: cell-based; details: including two lines resistant to ABT-737, ABT-263 and ABT-199
# From the text: Furthermore, one of the BIRD-2-sensitive lines, NCI-H929, corresponds to a multiple molecular subgroup that is resistant to BH3-mimetic agents and belongs to a poor prognosis category associated with chromosomal translocation. Thus, although BH3-mimetic agents represent a major advance in cancer treatment, resistance to these agents occurs and limits their efficacy, not only in multiple myeloma but other lymphoid malignancies as well. The resistance problem is not unique to HMCLs, but is illustrated by studies of ABT-737 and ABT-199 in primary MM cells where resistance was detected in more than half of primary patient samples tested. Therefore, these findings indicate the potential therapeutic importance of targeting both of Bcl-2's anti-apoptotic mechanisms. Adding to the potential value of targeting Bcl-2-IP3R interaction for treatment of multiple myeloma is the evidence reported here of synergistic activity when combined with chemotherapeutic agents typically employed in multiple myeloma treatment, and with ABT-263 and ABT-199.
molecule,measurement,setting,value
"Cc1cc2c(C(C)C)c(O)c(O)c(C=O)c2c(O)c1-c1c(C)cc2c(C(C)C)c(O)c(O)c(C=O)c2c1O [Gossypol, 1,6,7,1′,6′,7′-Hexahydroxy-5,5′-diisopropyl-3,3′-dimethyl-[2,2′]binaphthalenyl-8,8′-dicarbaldehyde]",IC50,Bcl-B,~0.5 µM
same,IC50,Bcl-XL,~0.5 µM
same,IC50,Bfl-1,~0.5 µM
"COc1ccc2c(c1)CC[C@@H]1[C@@H]2CC[C@]2(C)[C@@H](NCCCCCCN3C(=O)C=CC3=O)CC[C@@H]12 [U73122, reference compound]",effect on 854697-induced Ca2+ elevation,Jurkat cells; Jurkat cells pretreated 30 min with U73122,completely blocked
O=C(/C=C/c1ccc(Cl)c(Cl)c1)NN1CCOC1=O [compound 96505],cell death induction,multiple myeloma lines,inducing cell death
same,binding to the BH4 domain of Bcl-2,BH4 domain of Bcl-2,bind to the BH4 domain of Bcl-2
same,Kd,BH4 domain of Bcl-2,24 µM
same,cell death induction,primary human CLL cells [1],inducing cell death
CSc1c(C#N)c(N)nc(SCC(=O)c2ccc(OC(F)F)cc2)c1C#N [compound 197392],cell death induction,multiple myeloma lines,inducing cell death
same,binding to the BH4 domain of Bcl-2,BH4 domain of Bcl-2,bind to the BH4 domain of Bcl-2
same,cell death induction,primary human CLL cells [1],inducing cell death
CN(C)C(=O)OCC(Cc1ccc2ccccc2c1)N1CCN(C(=O)C(N)Cc2ccc(F)cc2)C(CO)C1 (centres unmarked) [compound 854697],cell death induction,multiple myeloma lines,inducing cell death
same,Ca2+ elevation,Jurkat cells; Jurkat cells,inducing IP3R-mediated Ca^2+ elevation
same,binding to the BH4 domain of Bcl-2,BH4 domain of Bcl-2,bind to the BH4 domain of Bcl-2
same,Kd,BH4 domain of Bcl-2,5.6 µM and 5.7 µM and 5.71 µM
same,killing of small cell lung cancer cells,[2],kills small cell lung cancer cells
same,Ca2+ elevation,primary human CLL cells [3],induces Ca^2+ elevation
same,cell death induction,primary human CLL cells [1],inducing cell death
same,Combination index (CI) with ABT-263,[4],< 1
same,toxic activity toward normal cells,[5],does not have toxic activity toward normal cells
RKKRRQRRRGGNVYTEIKCNSLLPLAAIVRV [BIRD-2],selective cytotoxicity,[2]; 15 SCLC lines treated,greater than two-fold selective cytotoxicity in 11 of the lines
same,cytotoxicity in combination with ABT-263,[6],synergistic cytotoxicity
same,apoptosis induction,[7],induces apoptosis

# Source: patent US11229641B2, “Inhibitors of Bcl-2” (CASE WESTERN RESERVE UNIVERSITY, priority 2016, dated 2022)
